Experimental data: patent publication US20130281493A1, “Method for Treating Cancer Harboring a p53 Mutation” (The Trustees of The University of Columbia in the City of …, priority 2010, published 2013)

How the values were obtained:
squalene synthase = target: T1, squalene synthase (Homo sapiens, UniProt P37268); settings: Ugawa et al., 2000; cited from earlier work
T1 sequence (P37268 1-417): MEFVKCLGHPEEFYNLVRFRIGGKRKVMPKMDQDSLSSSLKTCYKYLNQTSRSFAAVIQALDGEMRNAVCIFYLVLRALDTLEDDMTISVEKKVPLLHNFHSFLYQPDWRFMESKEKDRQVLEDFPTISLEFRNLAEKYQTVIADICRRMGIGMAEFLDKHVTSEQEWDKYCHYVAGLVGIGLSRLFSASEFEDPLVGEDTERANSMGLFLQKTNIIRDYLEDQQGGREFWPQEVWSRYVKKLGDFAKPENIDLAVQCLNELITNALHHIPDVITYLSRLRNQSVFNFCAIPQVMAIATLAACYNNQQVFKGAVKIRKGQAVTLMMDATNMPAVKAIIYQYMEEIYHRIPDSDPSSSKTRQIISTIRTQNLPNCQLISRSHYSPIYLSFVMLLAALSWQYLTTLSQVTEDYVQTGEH

MDA-231 cells [1] = assay: 3D culture of MDA-231 breast cancer cells (growth, invasive morphology); assay type: cell-based
Experimental: (§1) Cells were then seeded at a density of 5,000 cells/well in Assay Medium (DMEM/F12+2% Horse Serum+10 μg/ml Insulin+0.5 μg/ml Hydrocortisone [+5 ng/ml EGF for MCF10A cultures]) containing 2% Matrigel.
(§2) Cells were fixed using 2% formaldehyde at room temperature for at least 30 min. […] Primary antibodies were incubated with the cultures for 1-2 hr at room temperature, followed by washing, and addition of fluorescently-conjugated secondary antibodies for 40 min at room temperature. Nuclei were counterstained with DRAQ5 (Cell Signaling #4084) or Propidium Iodide (Sigma #P4170). Confocal microscopy was conducted using an Olympus IX81 confocal microscope and analyzed using Fluoview software.
(§3) Cells were treated on Day 1 or Day 4 of the 3D protocol (as described in the figure legends) and refed every 4 days with fresh drug. […] This range approximates clinically achievable serum concentrations in human patients (Dimitroulakos et al., 1999; Wong et al., 2002), • 6-Fluoromevalonate (200 μM) as previously described (Cuthbert and Lipsky, 1990) and YM-53601, FTI-277 or GTI-2133 at or above their reported IC50 in cells (Lerner et al., 1995; Ugawa et al., 2000; Vasudevan et al., 1999), and with • Fatostatin at either 2 μM or 20 μM as previously described (Kamisuki et al., 2009).

MDA-231.shp53 cells = settings: 25 μM from Day 1, 8 days, +DOX
Experimental: (§4) Three-dimensional culture was carried out as previously described (Debnath et al., 2003). Briefly, 8-well chamber slides were lined with 50 μl growth factor reduced Matrigel (BD Biosciences). […] Cells were refed with Assay Medium containing 2% Matrigel every 4 days. For RNA/protein analysis from 3D cultures, 35 mm plates were lined with 500 μl Matrigel and cells were seeded at a density of 225,000 cells/plate in Assay Medium+2% Matrigel. Cells were harvested using Cell Recovery Solution (BD Biosciences) according to the manufacturer's instructions.

MCF10A cells = assay: 3D culture of non-malignant MCF10A mammary epithelial cells (acinar morphology, luminal clearance); assay type: cell-based, human; settings: 1 mM, 8 days
Experimental: Cells were fixed using 2% formaldehyde at room temperature for at least 30 min. […] Primary antibodies were incubated with the cultures for 1-2 hr at room temperature, followed by washing, and addition of fluorescently-conjugated secondary antibodies for 40 min at room temperature. Nuclei were counterstained with DRAQ5 (Cell Signaling #4084) or Propidium Iodide (Sigma #P4170). Confocal microscopy was conducted using an Olympus IX81 confocal microscope and analyzed using Fluoview software. Cells were treated on Day 1 or Day 4 of the 3D protocol (as described in the figure legends) and refed every 4 days with fresh drug. […] This range approximates clinically achievable serum concentrations in human patients (Dimitroulakos et al., 1999; Wong et al., 2002), • 6-Fluoromevalonate (200 μM) as previously described (Cuthbert and Lipsky, 1990) and YM-53601, FTI-277 or GTI-2133 at or above their reported IC50 in cells (Lerner et al., 1995; Ugawa et al., 2000; Vasudevan et al., 1999), and with • Fatostatin at either 2 μM or 20 μM as previously described (Kamisuki et al., 2009).

MDA-468 cells = assay: 3D culture of MDA-468 breast cancer cells (growth, morphology); assay type: cell-based
Experimental: as §1, §2, §3

MDA-468.shp53 cells = assay: Add-back in 3D culture of MDA-468.shp53 cells depleted of mutant p53 (+DOX); assay type: cell-based; settings: MVA and MVAP added together, 1 mM each, from Day 1, 8 days
Experimental: as §4

[2] = target: geranylgeranyl transferase (Homo sapiens, UniProt P49354+P53609); settings: low micromolar concentrations; Lerner et al., 1995; cited from earlier work
farnesyltransferase = farnesyltransferase (Homo sapiens, UniProt P49354+P49356); settings: whole cells; Lerner et al., 1995; cited from earlier work
squalene synthesis = settings: low micromolar concentrations; Lerner et al., 1995; cited from earlier work
MDA-231 cells [3] = assay: MDA-231 subcutaneous tumor growth in NOD-SCID mice; assay type: in vivo; settings: 200 mg/kg/day, after 21 days of treatment
Experimental: 2×10^6 MDA-231 cells were injected subcutaneously into 8 week-old NOD-SCID mice. […] Tumor measurements were performed weekly using calipers. After 21 days of treatment, mice were sacrificed and tumors were extracted and weighed. Tumor volumes as a function of time (left) and tumor weights at day 21 (right) are presented. *denotes p<0.01, **denotes p<0.001 using a two-tailed students t-test. […] 2×10^6 MDA-231 cells were injected subcutaneously into 8 week-old NOD-SCID mice. […] Tumor measurements were performed weekly using calipers. After 21 days of treatment, mice were sacrificed and tumors were extracted and weighed. Tumor volumes as a function of time (left) and tumor weights at day 21 (right) are presented. *denotes p<0.01, **denotes p<0.001 using a two-tailed students t-test.

[4] = Serum level at the dose used in the mouse experiments; assay type: in vivo; settings: mice, 200 mg/kg/day

In the case of `F/C(COc1ccc2c(c1)[nH]c1ccccc12)=C1/CN2CCC1CC2` [YM-53601], the “concentrations that inhibit squalene synthase” value (squalene synthase) is given as “submicromolar”, the “effect on growth of MDA-231 cells in 3D culture” value (shortened to “effect on growth”) (MDA-231 cells [1]; 1 uM, added Day 1, 8 days) is given as “only a mild effect” and the “killing of cancer cells in 3D culture” value (MDA-231 cells [1]; 10 uM) is given as “killed all the cancer cells”.

With `CC(C)=CCC/C(C)=C/CC/C(C)=C/CC/C(C)=C/COP(=O)(O)OP(=O)(O)O` [Geranylgeranyl pyrophosphate] the “rescue of the morphological effects of mutant p53 depletion” value (MDA-231.shp53 cells) was “partially rescue” and the “rescue of the morphological effects of HMG-CoA reductase inhibition” value (MDA-231 cells [1]; MDA-231 with Simvastatin 1 μM, 25 μM GGPP, 8 days) was “partially rescue”.

With `CC(C)C[C@H](NC(=O)c1ccc(NCc2cnc[nH]2)cc1-c1cccc2ccccc12)C(=O)O` [GTI-2133] the “effect on growth” value (MDA-231 cells [1]; 1 uM, added Day 1, 8 days) was “profound impact” and the “effect on invasive morphology of MDA-231 cells in 3D culture” value (MDA-231 cells [1]; 1 uM, added Day 1, 8 days) was “profound impact”.

For `C[C@@](O)(CCO)CC(=O)O` (racemic) [mevalonic acid], the “luminal clearance in MCF10A cells” value (MCF10A cells) was “sufficient to block luminal clearance”, the “rescue of the phenotypic effects of statin treatment in 3D culture” value (MDA-468 cells; MDA-468 treated with Simvastatin 1 μM, supplemented) was “blocked many of the phenotypic effects of statins” and the “rescue of the phenotypic effects of statin treatment in 3D culture” value (MDA-231 cells [1]; MDA-231 treated with Simvastatin 1 μM, supplemented) was “blocked many of the phenotypic effects of statins”. For the same compound, the “effect on phenotypic reversion caused by mutant p53 knockdown” value (MDA-468.shp53 cells) was “dramatically inhibit”.

With `CC[C@H](C)C(=O)O[C@H]1CCC=C2C=C[C@H](C)[C@H](CC[C@@H]3C[C@@H](O)CC(=O)O3)[C@H]21` [Mevastatin] the “3D morphology of MDA-468 cells” value (MDA-468 cells; 1 μM, added Day 4, 13 days) was “profoundly affects” and the “3D morphology of MDA-231 cells” value (MDA-231 cells [1]; 1 μM, added Day 4, 13 days) was “profoundly affects”.

For `COC(=O)[C@H](CCSC)NC(=O)c1ccc(NC[C@@H](N)CS)cc1-c1ccccc1` [FTI-277], the “effect on geranylgeranyl transferase” value [2] is listed as “no effect”, the “concentrations that block farnesylation via inhibition of farnesyltransferase” value (farnesyltransferase) is listed as “nanomolar” and the “effect on squalene synthesis” value (squalene synthesis) is listed as “no effect”. For the same compound, the “effect on growth” value (MDA-231 cells [1]; 1 uM, added Day 1, 8 days) was “only a mild effect”.

With `CCC(C)(C)C(=O)O[C@H]1C[C@@H](C)C=C2C=C[C@H](C)[C@H](CC[C@@H]3C[C@@H](O)CC(=O)O3)[C@H]21` [Simvastatin] the “reduction of tumor size” value (MDA-231 cells [3]) was “about 40%” and the serum levels [4] was “about 100 micromolar”.

With `O=C(O)CC(O)(CF)CCO` (stereo not drawn) [6-fluoromevalonate, 6-Fluoromevalonate] the “phenotypic effects in 3D culture compared with HMG-CoA reductase inhibition by statins” value (MDA-468 cells; MDA-468, 200 μM, added Day 1, 8 days) was “remarkably similar phenotypic effects” and the “phenotypic effects in 3D culture compared with HMG-CoA reductase inhibition by statins” value (MDA-231 cells [1]; MDA-231, 200 μM, added Day 1, 8 days) was “remarkably similar phenotypic effects”.
